# Source: the METLIN SMRT retention time set (Domingo-Almenara et al. 2019)
# Experiment: gradient 5% acetonitrile 3 min, to 50% in 2 min, to 85% in 15 min, held 3 min, 100 µL/min
# Conditions: column: Zorbax Extend-C18 2.1 x 50 mm; eluents: water / acetonitrile, 0.1% formic acid
# Summary of the method: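 Each retention time is based on an adduct peak selected computationally and verified by manual inspection. Measurements used HPLC–quadrupole time-of-flight mass spectrometry in positive and negative ionization mode on mixtures of ~100 pure standards. Chromatography ran on a Zorbax Extend-C18 column (2.1 × 50 mm, 1.8 μm) at 100 μL/min with water and acetonitrile, each containing 0.1% formic acid, and dead and dwell volumes of 40 μL and 900 μL.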
row,RP-LC retention time,SMILES
1,689 s,CCn1nnc2ccc(-c3noc(C(C)NC(=O)c4ccccc4)n3)cc21 (configuration not stated)
2,579 s,CCCC1c2nccn2CCCN1C(=O)Cc1c(C)noc1C (configuration not stated)
3,1160 s,c1ccc2c(c1)[nH]c1c3ccccc3sc21
4,1040 s,CCC(C)NC(=O)NC1CCN(c2nc3cccnc3n(Cc3ccc(C)cc3)c2=O)CC1 (configuration not stated)
5,1000 s,CCOC(=O)c1oc2ccc(S(=O)(=O)N3CCC(c4noc(C5CC5)n4)C3)cc2c1C (configuration not stated)
6,690 s,O=C(NCCc1csc(C2CCN(C(=O)C3CCCC3)CC2)n1)C1CC1
7,723 s,O=c1[nH]cc(I)cc1I
8,729 s,O=C(Nc1nc(-c2ccco2)cs1)C1COCC(=O)N1Cc1ccccc1 (configuration not stated)
9,553 s,CCC(C)(C)C(=O)N1CC(c2nc(-c3ccccc3)no2)C2(CCOCC2)C1 (configuration not stated)
10,809 s,O=c1ccc(S(=O)(=O)N2CCOCC2)cn1Cc1cccc(Cl)c1
11,709 s,CC(C)n1c(N2CCN(C(=O)c3ccccn3)CC2)cc(=O)n(C(C)C)c1=O
12,1300 s,CCOc1nc2ccccc2nc1N1CCCC(C(=O)Nc2ccc(Cl)cc2C)C1 (configuration not stated)
13,927 s,COc1ccc(OC)c(NC(=O)NCc2cccn2Cc2ccccc2)c1
14,1170 s,CCOc1ccccc1-c1nc(Cc2noc(-c3ccccc3)n2)c(C)o1
15,1200 s,COc1cccc(/C=C2\CCc3ccccc3C2=O)c1
16,696 s,C=CCN=C(NC#N)SC
17,982 s,CCCS(=O)(=O)N1CC(=O)N(c2cc(Cl)ccc2C)C(C)(C(=O)NC2CCCCC2)C1 (configuration not stated)
18,666 s,CCn1cnc(S(=O)(=O)N2CCC(C(=O)Nc3ccccc3OC)CC2)c1
19,559 s,CCN1CCN(CCNC(=O)C2CCN(c3nc4cccnc4s3)CC2)CC1
20,641 s,Cn1cc(C(=O)N2CC(n3cc(COc4ccc(F)cc4)nn3)C2)cn1
21,1150 s,O=c1c2cnn(-c3ccc(Br)cc3)c2ncn1Cc1nc(-c2ccc(F)cc2)no1
22,581 s,O=C(NCc1cnccn1)c1ccnc(N2CCNC(c3ccccc3)C2)c1 (configuration not stated)
23,589 s,C=CCNC(=O)CCc1c(-c2ccc(F)cc2)nc2ccccn12

row,RP-LC retention time,SMILES
1,754 s,COc1ccc(OC)c(-c2ccc(=O)n(CCNC(=O)C(C)Oc3ccccc3F)n2)c1 (configuration not stated)
2,953 s,O=C1[C@H]2CN(Cc3ccc(Cl)c(F)c3)C[C@H]2C(=O)N1Cc1ccc2c(c1)OCO2
3,1170 s,CCCc1noc(-c2ccnc(-n3ncc(C(=O)Nc4ccc(C)c(F)c4)c3C)c2)n1
4,826 s,Cc1cccc(N2C(=O)CN(CCc3ccccc3)[C@H]3CS(=O)(=O)C[C@H]32)c1
5,757 s,CN(C)S(=O)(=O)N1CCN(S(=O)(=O)c2ccc(F)cc2)CC1
6,705 s,CCN1CCN(C2CCN(C(=O)c3cc(F)ccc3Cl)CC2)C1=O
7,582 s,CCCCN1CCN(C(=O)c2cc(-c3ccncc3)cn2Cc2ccc(C)cc2)CC1
8,630 s,CC(C)(c1cc(Cl)c(O)c(CN2CCOCC2)c1)c1cc(Cl)c(O)c(CN2CCOCC2)c1
9,612 s,Cc1c(CN2CCN(C(=O)[C@H](C)O)CC2)sc2c(N3CCOCC3)nc(-c3cnc(N)nc3)nc12
10,578 s,O=C(c1ccn[nH]1)N1CCCC(Cn2c(C3CC3)nc3cccnc32)C1 (configuration not stated)
11,848 s,COC(=O)C1=CN(c2cc(OC)cc(OC)c2)c2ccccc2S1(=O)=O
12,1270 s,Cc1oc2ccn(Cc3cccc(F)c3)c(=O)c2c1C(=O)NC1CCCCCC1
13,660 s,Cc1cc(NC(=O)COc2cccc3c(=O)n(C)ccc23)no1
14,723 s,COC(=O)c1c(C)[nH]c(C(=O)N2CCCC(C(=O)N3CCCCCC3)C2)c1C (configuration not stated)
15,992 s,CCn1cc(-c2nc(C(=O)NCc3ccc(F)cc3F)cs2)c2cccnc21
16,866 s,CCc1ccc(CNC(=O)Cn2cc(-c3nnco3)c3ccccc32)cc1
17,880 s,O=C(NCC(O)c1ccc(C(F)(F)F)cc1)C(=O)Nc1ccc(F)cc1F (configuration not stated)
18,1100 s,Cc1ccccc1-c1nc(N)n(C(=O)C(C)(C)C)n1
19,781 s,CCNC(=O)c1nc(C(=O)NCc2cc(F)cc(F)c2)cs1
20,557 s,CCc1nc(NCc2ccccn2)ncc1C(=O)O
21,672 s,CCOC(=O)c1cc[nH]c1CC(=O)NC
22,804 s,CCOc1ccc(S(=O)(=O)N(C)C2CCc3nn(CC4CC4)c(=O)n3CC2)cc1 (configuration not stated)
23,888 s,O=C(NCc1ccc(F)cc1)c1nnc(-c2ccc(S(=O)(=O)N3CCCC3)cc2)o1

row,RP-LC retention time,SMILES
1,774 s,CCS(=O)(=O)N1CCc2c(c(CN(C(=O)c3ccccc3F)c3ccccc3)nn2C)C1
2,1070 s,Cc1nc(-c2cc(S(=O)(=O)Nc3ccc(Br)cc3F)c(C)s2)cs1
3,683 s,COc1ccc(NC(=O)Nc2c(-c3ccncc3)[nH]c3ccc(F)cc23)c(OC)c1
4,753 s,CSc1ncc(Cl)c(C(=O)NCc2ccco2)n1
5,930 s,CCCCOc1ccc(CNC(=O)C2CCCN(c3nccc(C)n3)C2)cc1 (configuration not stated)
6,643 s,CCOC(=O)CNC(=O)N1CCc2c(c(C(=O)N3CCCCC3)nn2C)C1
7,827 s,CCOC(=O)c1nc(NC2CCCCCC2)c2ccccc2n1
8,775 s,O=C(COc1cccc(C(F)(F)F)c1)Nc1cc(N2CCOCC2)ncn1
9,716 s,c1ccc(CC2CCN(Cc3nc(-c4ccc(N5CCOCC5)nc4)no3)CC2)cc1
10,662 s,COc1cc2nc(N3CCC(N4CCCCC4)CC3)nc(NC3CCCCCC3)c2cc1OC
11,1460 s,COc1ccc(OC(=O)c2cc3c(C)nn(-c4cccc(F)c4)c3s2)cc1
12,658 s,COC(=O)Cn1c2ccc(F)cc2c2nc3ccccc3nc21
13,773 s,COc1cccc(-c2cn3ccn(-c4ccccc4)c(=O)c3n2)c1
14,577 s,O=C(NCCN1CCCCCC1)c1nc(-c2ccnc(N3CCCCC3)c2)no1
15,720 s,CN1C(=O)CCC2(CNC(=O)c3cccn3C)CCC=C12 (configuration not stated)
16,833 s,CC(C)CC(=O)N1CCCCCCNC(=O)[C@@H]2CCCC[C@@H]21
17,599 s,CC(=O)Nc1ccc(S(=O)(=O)NCc2nc(C)no2)cc1
18,750 s,CN1C(=O)c2cc(C(=O)NCc3cccc(F)c3)nn2CC1(C)C(=O)NC1CCCC1 (configuration not stated)
19,812 s,CCn1c(CCC(=O)NCc2ccc(Cl)cc2)nc2ccccc2c1=O
20,1010 s,CC(C)c1cc(NCc2ccccn2)n2ncc(-c3ccccc3)c2n1
21,1020 s,CCOc1ccc(CNC(=O)c2cc(S(=O)(=O)N3CCCCC3)c(C)n2C)cc1
22,671 s,O=C(NC1CCCN(c2cc(N3CCCC3)ncn2)C1)c1ccoc1 (configuration not stated)
23,626 s,CCn1cc(CCN2CCC(C(=O)Nc3ccc4c(c3)OCCO4)CC2)c2cccnc21

row,RP-LC retention time,SMILES
1,1020 s,CC(C)CCNC(=O)c1ccc(-c2nc3cccnc3n2C2CCCCC2)cc1
2,603 s,COc1ccc(C(=O)N2CCCCC2c2nncn2C)cn1 (configuration not stated)
3,680 s,COc1ccc(CNC(=O)N2CC(c3nc(C)no3)C3(CCOCC3)C2)cc1 (configuration not stated)
4,1080 s,Cc1ccc(-c2csc(NC(=O)c3ccccc3Br)n2)cc1
5,864 s,CSc1ccc(-c2nc3ncccn3c2Nc2c(C)cccc2C)cc1
6,648 s,O=C1NC(=O)/C(=C/c2ccc(C(=O)Nc3ccc(C(=O)O)cc3)cc2)S1
7,730 s,COCCN1CC2(CCN(S(=O)(=O)c3cccc(Cl)c3)CC2)C1c1ccccc1 (configuration not stated)
8,835 s,Cc1csc(-c2cc(S(=O)(=O)NCc3ccc4c(c3)OCO4)cn2CC(=O)N2CCCC2)n1
9,598 s,CCC1CCCCN1CCCNC(=O)CCc1cc2ccccc2[nH]c1=O (configuration not stated)
10,1140 s,CC(C)c1ccc(N2C(=O)C3N=NN(Cc4nc(-c5ccccc5Br)no4)C3C2=O)cc1 (configuration not stated)
11,1060 s,COc1ccc(-c2nc3n(c2C(=O)Nc2nc(-c4ccc(C)cc4)cs2)CCS3(=O)=O)cc1
12,886 s,NS(=O)(=O)c1ccc(CCNS(=O)(=O)c2ccccc2-c2nc(-c3ccccc3)no2)cc1
13,1140 s,CCc1ccc(S(=O)(=O)c2cnc(N3CCN(c4ccccc4)CC3)nc2N)cc1
14,802 s,CN1C(=O)c2cc(C(=O)N3CCCCCC3)nn2CC1(C)C(=O)NC1CCCCCC1 (configuration not stated)
15,700 s,Cn1cc(CCNC(=O)c2ccccc2C(F)(F)F)c2cccnc21
16,625 s,CC(C)c1cc(C(=O)NC2CC2)n[nH]1
17,699 s,CCCn1cc(CCNC(=O)Nc2c(F)cccc2F)c2cccnc21
18,955 s,CC1(C(=O)NCc2ccc(F)cc2)CCCN(C(=O)Nc2ccccc2Br)C1 (configuration not stated)
19,778 s,O=C(Cn1c(=O)c2cc(C3CC3)nn2c2ncccc21)Nc1cccc(F)c1
20,766 s,COCCNc1oc(-c2ccc([N+](=O)[O-])cc2)nc1C#N
21,834 s,COCCn1cc(CCNC(=O)Nc2ccc(Br)cc2F)c2cccnc21
22,875 s,CCOc1ccc(NC(=O)c2cnc(-c3ccc(OC)cc3)nc2-c2ccncc2)cc1
23,1090 s,C=C1C(=O)O[C@@H]2/C=C(\C)CCC=C(C)CC[C@@H]12
